Assays:
[1] = tested on: Sol8 muscle cells; assay: Transfection efficiency of differentiated Sol8 muscle cells in vitro (GpLuc mRNA); type: cell-based, mouse; conditions: added to polymer PB83, low- and high-charge ratio complexes, 24 h post transfection
From the text: The purpose of this example is to assess the effect of lipid additives such as permanently cationic lipids or lipidoids on transfection/expression efficiency in Sol8 cells. […] Sol8 is a myogenic cell line isolated by Daubas et al. from primary cultures of soleus muscle taken from the leg of a normal C3H mouse. As a read-out for transfection efficiency, GpLuc mRNA (SEQ ID NO: 14) was used as the cargo. A successful transfection with the cargo leads to the translation of the luciferase protein and to a secretion of Gp luciferase protein into the cell culture supernatant. For further details on the GpLuc mRNA cargo see Example 1.
For a subset on hydrogel, a volume of 0.2 mL Sol8 cells (20.000 cells) were seeded in 96 well glass bottom plates (Softwell Hydrogel coated with collagen (elasticity E=12 kPa)) on day 1. For another subset without hydrogel, a volume of 0.2 mL with 10.000 Sol8 cells per well were seeded in a 96 well glass bottom plates.
After removing the medium from each well, 100 μL DMEM medium (with 2% horse serum) was added to each well. Afterwards, on day 2, Sol8 cells were transfected with 100 μL transfection mix of polymer-lipid(oid) complexes (in triplicates without serum) and respective controls (also in triplicates), and cells were incubated at 37° C. and 5% CO2 for 120 minutes (non-hydrogel subset) or respectively 90 minutes (hydrogel subset). After incubation, 150 μL medium was exchanged with 150 μL fresh DMEM medium supplemented with 10% fetal calf serum.
Twenty-four hours post transfection, i.e. on day 3, 10 μL of supernatant of each well was extracted and used for quantification of protein expression (measurement of GpLuc) via luminescence analysis as described above.

[2] = tested on: HepG2 cells; assay: Transfection efficiency of HepG2 cells in vitro (GpLuc mRNA, luminescence of supernatant); type: cell-based, human; conditions: for effect on transfection efficiency (in words): added to polymer PB83, 24 h post transfection, compared to polymer alone
Procedure: This example describes the evaluation of the effect of different polymer-lipid(oid) formulations (as described under Example ▪1) on transfection efficiency on HepG2 cells (human liver carcinoma cell line). As a read-out for transfection efficiency, GpLuc mRNA (SEQ ID NO: 14) was used as a cargo. Successful transfection with the cargo leads to the translation of the luciferase protein and to a secretion of Gp luciferase protein into the cell culture supernatant.
A volume of 0.2 mL HepG2 cells (10.000 cells) were seeded in a 96 well tissue culture plate. After removing the medium from each well, 100 μL RPMI 1640 medium (with 1% Penicillin and 1% Streptomycin, 1% L-Glutamin) was added to each well. Afterwards, HepG2 cells were transfected with 100 μL transfection mix (in triplicates) of the above described polymer-lipid(oid) mRNA complexes and respective controls (in triplicates), and cells were incubated at 37° C. and 5% CO2 for 90 minutes. After incubation, 150 μL medium was exchanged with 150 μL fresh RPMI 1640 medium supplemented with 10% fetal calf serum. Twenty-four hours post transfection, 10 μL of supernatant of each well was extracted and used for further luminescence analysis (see below).
A volume of 10 μL supernatant was transferred to a 96 well plate for GpLuc measurement. Then, coelenterazine working solution (100 μM) was prepared (1 mL coelenterazine stock solution (4.72 mM in EtOH) in 49 mL phosphate buffered saline supplemented with 5 mM NaCl, pH 7.2). A volume of 100 μL coelenterazine working solution was used as a substrate for GpLuc and measured after 5 seconds in a commercially available microplate reader.

[3] = tested on: hemagglutinin (HA) protein of influenza A virus (A/Netherlands/602/2009 (H1N1)); assay: Hemagglutination inhibition assay after intramuscular vaccination with HA-mRNA and 3-C12-OH (second Example 7); type: in vivo; conditions: Balb/c mice, 10 μg HA-mRNA R2564 with 3-C12-OH, i.m.; after prime and boost vaccination
[4] = tested on: hemagglutinin (HA) protein of influenza A virus (A/Netherlands/602/2009 (H1N1)); type: in vivo; conditions: Balb/c mice, 10 μg HA-mRNA with 3-C12-OH i.m.; splenocytes 14 days after boost
[5] = tested on: hemagglutinin (HA) protein of influenza A virus (A/Netherlands/602/2009 (H1N1)); assay: ELISA of influenza specific IgG1 and IgG2a antibodies in sera of vaccinated mice; type: in vivo; conditions: Balb/c mice, 10 μg HA-mRNA with 3-C12-OH i.m.; 21 days after prime and 14 days after boost

Question: Which results are given for `CCCCCCCCCCCCNCCN(CCNCCCCCCCCCCCC)CCNCCCCCCCCCCCC` [3-C12]?
Answer: effect on transfection efficiency / expression level (in words) [1]: profound increase; effect on transfection efficiency (in words) [2]: profound increase

Question: For `CCCCCCCCCCC(O)C[N+](C)(C)CCN(CC[N+](C)(C)CC(O)CCCCCCCCCC)CC[N+](C)(C)CC(O)CCCCCCCCCC` (centres unmarked) [3-C12-OH-cat], which “effect on transfection efficiency (in words)” value [2] is on record?
Answer: profound increase

Question: How did the “effect on transfection efficiency / expression level (in words)” value [1] turn out when `CCCCCCCCCCC(O)CNCCN(CCNCC(O)CCCCCCCCCC)CCNCC(O)CCCCCCCCCC` (centres unmarked) [3-C12-OH] was run?
Answer: profound increase

Question: What about the “antibody titers against the HA protein compared to HA-mRNA (R2564) alone” value [3] of the same compound?
Answer: significantly higher

Question: What about the “IFNy production compared to non-lipid-formulated mRNA” value [4] of the same compound?
Answer: significant increased

Question: What about the “effect on transfection efficiency (in words)” value [2] of the same compound?
Answer: profound increase

Question: And the “functional antibody titers, IgG1 subtype, compared to mRNA without lipid” value [5]?
Answer: significantly higher

Question: And the “functional antibody titers, IgG2a subtype, compared to mRNA without lipid” value [5]?
Answer: significantly higher

Question: Which results are given for `CCCCCCCC/C=C\CCCCCCCC(=O)OCC(C[N+](C)(C)C)OC(=O)CCCCCCC/C=C\CCCCCCCC` (centres unmarked) [DOTAP, 1,2-dioleoyl-3-trimethylammonium-propane, reference compound]?
Answer: effect on transfection efficiency / expression level (in words) [1]: effective; increase in transfection efficiency compared to transfections with polymer alone ([2]; combination with polymer PB83, high-charge complexes N/P 2, N/P 4, N/P 6, 24 h post transfection): up to 3 log units
